“Also recorded” adds a separate entry of the source. Where two headings read alike, the source gives them in different places.
Key:
[1] = biological target: T1, LKB1 (Homo sapiens, UniProt Q15831); test: Cell-free kinase assay (Kinexus); assay type: biochemical
T1 construct: purchased Kinexus, Canada (screening service)
Description: (§1) To determine whether Activator-3 affects the activity of any other protein kinases, we screened it in cell-free assays against a panel of 100 protein kinases (Kinexus, Canada). […] Three kinases, DDR1 (−79%), SRC (−71%) and ALK5 (−61%) were inhibited by Activator-3 by more than 50% at 10 µM.
Table S2: Activity change observed in the LKB1 Kinase tested against Activator-3 at 200μM
Protein Kinase (CPM) (CPM) % Change
Table S3: Evaluating the goodness of the representative structure obtained from MD
simulations using PROCHECK server.
Ramchandran Map No. of resides Percentage
Most favored regions 889 85.8%
Additional allowed regions 128 12.4%
Generously allowed regions 13 1.3%
Disallowed regions 6 0.6%
Non-glycine and non-proline residues 1036 100.0%
Table S4: Heterotrimeric human AMPK crystal structures available in PDB.
PDBID Isoform Organism Inhibitor and/or activator Modifications References
Staurosporine, 108-SEP Lagendorf et al. 20161
5EZV α2β1γ1 Homo sapiens C2Z, C1V, Staurosporine 172-TPO […]

[2] = biological target: T2, recombinant human AMPK α2β2γ2 (Homo sapiens, UniProt Q9UGJ0); test: In vitro AMP kinase assay (pACC ELISA), α2β2γ2; assay type: biochemical
T2 construct: purchased SignalChem; host or cells: baculovirus expression
Description: (§2) Having observed the effect of Activator-3 on the activation of AMPK in cell based assays, we next examined whether Activator-3 could activate AMPK directly or not. […] The activity of recombinant human AMPK (α1β1γ1, α2β1γ1, α2β2γ2 and α2β2γ3) in the presence of vehicle was considered as 100%. The EC50 of Activator-3 for the activation of α1β1γ1, α2β1γ1 and α2β2γ2 isozymes were similar. However, the activity of Activator-3 against α2β2γ3 was marginally higher (Fig. 1C).
(§3) A high binding Enzyme Immuno Assay (EIA) 96-well plate (Sigma: Cat# CLS3590) was coated with Acetyl CoA Carboxylase 2 (ACC: 175–271 amino acids) peptide, a direct substrate for AMPK, 100 ng per well (1:1000 ratio, Cat# 12–491, Upstate biotechnology) and incubated overnight at 25 °C. Reaction mixture was incubated at 30 °C for 2 h and reaction was stopped by washing the plate with 0.05% Tween 20 followed by incubation with pACC primary antibody and rabbit secondary antibody as described in cell based ELISA section. Assay buffer is composed of 10 mM DTT, 100 mM magnesium acetate, 50 μM ATP and 10 mM HEPES.

[3] = biological target: T3, ROR2 (Homo sapiens, UniProt Q01974); test: Cell-free kinase panel (Kinexus); assay type: biochemical; settings: 10 µM
T3 construct: purchased Kinexus, Canada (screening service)
Description: as §1

[4] = biological target: T4, ALK5 (Homo sapiens, UniProt P36897); test: Cell-free kinase panel (Kinexus); assay type: biochemical; settings: 10 µM
T4 construct: purchased Kinexus, Canada (screening service)
Description: as §1

[5] = biological target: T5, LRRK2 (Homo sapiens, UniProt Q5S007); test: Cell-free kinase panel (Kinexus); assay type: biochemical; settings: 10 µM
T5 construct: purchased Kinexus, Canada (screening service)
Description: as §1

[6] = biological target: T6, TAK1 (Homo sapiens, UniProt O43318); test: Cell-free kinase panel (Kinexus); assay type: biochemical; settings: 10 µM
T6 construct: purchased Kinexus, Canada (screening service)
Description: as §1

[7] = biological target: T7, CAMKK2 (Homo sapiens, UniProt Q96RR4); test: Cell-free kinase panel (Kinexus); assay type: biochemical
T7 construct: purchased Kinexus, Canada (screening service)
Description: as §1

[8] = biological target: T8, DDR1 (Homo sapiens, UniProt Q08345); test: Cell-free kinase panel (Kinexus); assay type: biochemical; settings: 10 µM
T8 construct: purchased Kinexus, Canada (screening service)
Description: as §1

[9] = biological target: T9, PRK1 (Homo sapiens, UniProt Q16512); test: Cell-free kinase panel (Kinexus); assay type: biochemical; settings: 10 µM
T9 construct: purchased Kinexus, Canada (screening service)
Description: as §1

[10] = biological target: T10, SRC (Homo sapiens, UniProt P12931); test: Cell-free kinase panel (Kinexus); assay type: biochemical; settings: 10 µM
T10 construct: purchased Kinexus, Canada (screening service)
Description: as §1

[11] = biological target: T11, PAK1 (Homo sapiens, UniProt Q13153); test: Cell-free kinase panel (Kinexus); assay type: biochemical; settings: 10 µM
T11 construct: purchased Kinexus, Canada (screening service)
Description: as §1

[12] = biological target: T12, human recombinant AMPK α2β1γ1 (Homo sapiens, UniProt P54619); test: Phosphatase protection assay (PP2C); assay type: biochemical; parameters: host or cells: baculovirus expression; settings: 10–100 nM
Description: The reaction was stopped by adding SDS-loading dye immediately to the reaction mixtures followed by boiling the samples at 95 °C for 10′. These samples were run on a 10% SDS-PAGE and probed for AMPK and pAMPK (1:1000; Cell Signaling Technologies).

[13] = system: Adenylate kinase; test: AK activity assay kit; assay type: biochemical
[14] = biological target: T12, human recombinant AMPK α2β1γ1; test: In vitro AMP kinase assay (pACC ELISA), α2β1γ1; assay type: biochemical; parameters: purchased SignalChem P47-10H-05/P48-10H-05 (for all four isozymes together); host or cells: baculovirus expression
Description: as §2, §3

[15] = biological target: T13, recombinant human AMPK α1β1γ1 (Homo sapiens, UniProt P54619); test: In vitro AMP kinase assay (pACC ELISA), α1β1γ1; assay type: biochemical
T13 construct: purchased SignalChem P47-10H-05/P48-10H-05 (for all four isozymes together); host or cells: baculovirus expression
Description: as §2, §3

[16] = system: human recombinant AMPK isozymes; test: In vitro AMP kinase assays, isozymes taken together; assay type: biochemical
Description: as §3

[17] = system: PFK1; test: PFK activity assay kit; assay type: biochemical; settings: Activator-3 at 10 µM (≤10 µM)
[18] = Pharmacokinetic study in male rats; assay type: in vivo, rat
Description: Male SD rats were orally administered 30 mg/Kg of Activator-3. Blood and brain samples were collected at specified time points and were analyzed for Activator-3 using a LC-MS/MS method[64]–[66]. […] The human plasma protein binding was ~80% (data not shown). […] Systemic exposure of Activator-3 was very high in plasma compared to brain.
Male SD rats were orally administered with 30 mg/Kg of Activator-3. Blood and brain samples were collected at specified time points and were analyzed for Activator-3 using optimized LC-MS/MS method[64]–[66].

[19] = Activator-3 1 nM to 10 μM with 100 µM AMP

T12 sequence (P54619 whole entry): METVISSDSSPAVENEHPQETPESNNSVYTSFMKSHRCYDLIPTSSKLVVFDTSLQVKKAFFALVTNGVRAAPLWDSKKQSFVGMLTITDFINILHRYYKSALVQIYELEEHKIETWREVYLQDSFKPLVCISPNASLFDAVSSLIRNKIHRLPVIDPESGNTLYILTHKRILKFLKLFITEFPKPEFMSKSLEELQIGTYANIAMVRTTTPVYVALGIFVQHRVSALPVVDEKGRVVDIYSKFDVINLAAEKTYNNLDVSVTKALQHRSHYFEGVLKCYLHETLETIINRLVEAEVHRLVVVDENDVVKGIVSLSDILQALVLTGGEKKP
T12 sequence (P54646 whole entry partner): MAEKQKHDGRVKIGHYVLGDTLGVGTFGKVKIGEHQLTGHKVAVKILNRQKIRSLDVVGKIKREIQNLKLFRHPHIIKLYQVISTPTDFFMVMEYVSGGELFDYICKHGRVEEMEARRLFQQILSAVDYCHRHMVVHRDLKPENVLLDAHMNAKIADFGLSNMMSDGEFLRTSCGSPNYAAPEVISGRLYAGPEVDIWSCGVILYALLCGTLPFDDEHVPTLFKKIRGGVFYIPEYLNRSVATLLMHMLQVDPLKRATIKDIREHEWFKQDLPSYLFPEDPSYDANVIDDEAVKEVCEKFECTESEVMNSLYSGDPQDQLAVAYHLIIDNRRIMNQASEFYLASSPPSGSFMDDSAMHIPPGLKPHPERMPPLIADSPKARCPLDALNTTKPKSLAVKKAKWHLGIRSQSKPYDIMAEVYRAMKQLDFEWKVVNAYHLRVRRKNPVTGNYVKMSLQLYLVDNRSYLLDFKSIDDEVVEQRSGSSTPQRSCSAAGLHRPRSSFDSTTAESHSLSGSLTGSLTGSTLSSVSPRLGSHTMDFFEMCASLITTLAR
T12 sequence (Q9Y478 whole entry partner): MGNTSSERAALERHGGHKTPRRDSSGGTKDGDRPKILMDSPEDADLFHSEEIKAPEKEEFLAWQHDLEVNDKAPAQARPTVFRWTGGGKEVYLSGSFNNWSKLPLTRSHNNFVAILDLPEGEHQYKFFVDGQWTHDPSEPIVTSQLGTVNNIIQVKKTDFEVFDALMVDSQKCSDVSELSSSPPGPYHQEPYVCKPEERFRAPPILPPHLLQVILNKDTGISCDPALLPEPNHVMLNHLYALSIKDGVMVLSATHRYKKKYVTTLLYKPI
T13 sequence (P54619 whole entry): as the sequence (P54619 whole entry) above
T13 sequence (Q13131 whole entry partner): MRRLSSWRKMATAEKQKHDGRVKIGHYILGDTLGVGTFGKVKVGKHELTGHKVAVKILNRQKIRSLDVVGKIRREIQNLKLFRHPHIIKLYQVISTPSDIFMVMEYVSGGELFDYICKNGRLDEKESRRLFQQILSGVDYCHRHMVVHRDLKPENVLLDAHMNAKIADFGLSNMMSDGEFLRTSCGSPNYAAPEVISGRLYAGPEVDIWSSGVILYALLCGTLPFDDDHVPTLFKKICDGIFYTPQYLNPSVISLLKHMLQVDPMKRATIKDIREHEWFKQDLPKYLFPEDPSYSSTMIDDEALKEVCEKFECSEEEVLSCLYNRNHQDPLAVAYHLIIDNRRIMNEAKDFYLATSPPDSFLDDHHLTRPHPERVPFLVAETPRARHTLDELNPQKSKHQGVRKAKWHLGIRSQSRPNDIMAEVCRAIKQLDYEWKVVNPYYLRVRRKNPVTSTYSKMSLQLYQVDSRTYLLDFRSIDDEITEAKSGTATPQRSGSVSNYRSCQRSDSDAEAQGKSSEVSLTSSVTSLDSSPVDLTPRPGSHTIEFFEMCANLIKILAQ
T13 sequence (Q9Y478 whole entry partner): as the sequence (Q9Y478 whole entry partner) above
T1 sequence (Q15831 whole entry, species assumed): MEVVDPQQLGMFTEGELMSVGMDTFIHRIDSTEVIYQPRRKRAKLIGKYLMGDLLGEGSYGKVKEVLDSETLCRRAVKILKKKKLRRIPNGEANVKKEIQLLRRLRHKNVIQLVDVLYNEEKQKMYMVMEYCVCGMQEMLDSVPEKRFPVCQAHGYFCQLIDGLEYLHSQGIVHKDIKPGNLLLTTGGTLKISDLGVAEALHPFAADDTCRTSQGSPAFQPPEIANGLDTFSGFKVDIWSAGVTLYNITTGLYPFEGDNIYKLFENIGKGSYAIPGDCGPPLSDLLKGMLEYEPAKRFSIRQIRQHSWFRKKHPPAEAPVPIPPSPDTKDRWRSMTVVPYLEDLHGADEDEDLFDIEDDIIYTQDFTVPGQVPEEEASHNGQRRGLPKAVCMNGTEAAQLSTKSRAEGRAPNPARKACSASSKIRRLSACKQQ
T1 sequence (Q7RTN6 whole entry partner, species assumed): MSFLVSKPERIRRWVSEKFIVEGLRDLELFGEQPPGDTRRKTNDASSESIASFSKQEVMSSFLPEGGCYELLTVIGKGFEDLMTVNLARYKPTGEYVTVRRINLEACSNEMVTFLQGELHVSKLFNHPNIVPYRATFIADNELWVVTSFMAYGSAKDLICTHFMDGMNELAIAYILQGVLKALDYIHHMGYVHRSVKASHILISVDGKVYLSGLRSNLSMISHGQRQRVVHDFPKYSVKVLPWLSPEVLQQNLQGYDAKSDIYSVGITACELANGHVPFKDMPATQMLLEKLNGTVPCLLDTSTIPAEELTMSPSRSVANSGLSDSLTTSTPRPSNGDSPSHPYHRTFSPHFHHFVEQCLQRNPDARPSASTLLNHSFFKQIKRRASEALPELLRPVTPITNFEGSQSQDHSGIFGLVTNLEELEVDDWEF
T1 sequence (Q9Y376 whole entry partner, species assumed): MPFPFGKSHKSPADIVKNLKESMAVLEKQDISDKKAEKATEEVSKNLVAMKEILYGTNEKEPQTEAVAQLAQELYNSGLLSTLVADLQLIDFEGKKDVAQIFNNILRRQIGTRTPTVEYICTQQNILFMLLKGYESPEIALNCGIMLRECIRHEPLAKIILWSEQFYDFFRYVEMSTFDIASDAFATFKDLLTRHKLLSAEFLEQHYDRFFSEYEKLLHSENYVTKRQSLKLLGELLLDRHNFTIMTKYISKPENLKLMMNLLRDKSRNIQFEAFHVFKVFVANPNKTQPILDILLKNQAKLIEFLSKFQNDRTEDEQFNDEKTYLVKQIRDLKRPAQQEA
T2 sequence (Q9UGJ0 whole entry): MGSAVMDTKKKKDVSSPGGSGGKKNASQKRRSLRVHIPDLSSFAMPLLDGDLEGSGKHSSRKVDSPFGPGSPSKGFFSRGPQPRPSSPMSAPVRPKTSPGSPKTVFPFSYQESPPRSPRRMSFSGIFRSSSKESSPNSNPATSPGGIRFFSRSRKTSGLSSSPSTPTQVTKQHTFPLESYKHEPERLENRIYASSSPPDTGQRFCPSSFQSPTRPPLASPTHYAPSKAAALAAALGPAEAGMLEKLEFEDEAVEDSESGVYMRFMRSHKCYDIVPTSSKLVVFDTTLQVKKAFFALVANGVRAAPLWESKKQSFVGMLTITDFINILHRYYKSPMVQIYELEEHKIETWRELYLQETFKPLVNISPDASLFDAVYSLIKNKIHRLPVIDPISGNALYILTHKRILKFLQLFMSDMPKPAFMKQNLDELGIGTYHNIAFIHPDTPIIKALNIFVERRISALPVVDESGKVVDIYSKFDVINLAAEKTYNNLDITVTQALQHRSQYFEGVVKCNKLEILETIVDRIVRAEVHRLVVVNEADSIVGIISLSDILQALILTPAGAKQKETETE
T2 sequence (P54646 whole entry partner): as the sequence (P54646 whole entry partner) above
T2 sequence (O43741 whole entry partner): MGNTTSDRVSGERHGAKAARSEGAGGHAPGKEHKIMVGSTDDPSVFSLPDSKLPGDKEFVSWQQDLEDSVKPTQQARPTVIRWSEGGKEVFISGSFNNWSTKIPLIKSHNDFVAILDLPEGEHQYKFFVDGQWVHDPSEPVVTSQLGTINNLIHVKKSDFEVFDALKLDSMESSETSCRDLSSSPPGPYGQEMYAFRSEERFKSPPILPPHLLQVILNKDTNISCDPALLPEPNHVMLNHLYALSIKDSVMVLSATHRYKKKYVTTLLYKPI
T7 sequence (Q96RR4 whole entry, species assumed): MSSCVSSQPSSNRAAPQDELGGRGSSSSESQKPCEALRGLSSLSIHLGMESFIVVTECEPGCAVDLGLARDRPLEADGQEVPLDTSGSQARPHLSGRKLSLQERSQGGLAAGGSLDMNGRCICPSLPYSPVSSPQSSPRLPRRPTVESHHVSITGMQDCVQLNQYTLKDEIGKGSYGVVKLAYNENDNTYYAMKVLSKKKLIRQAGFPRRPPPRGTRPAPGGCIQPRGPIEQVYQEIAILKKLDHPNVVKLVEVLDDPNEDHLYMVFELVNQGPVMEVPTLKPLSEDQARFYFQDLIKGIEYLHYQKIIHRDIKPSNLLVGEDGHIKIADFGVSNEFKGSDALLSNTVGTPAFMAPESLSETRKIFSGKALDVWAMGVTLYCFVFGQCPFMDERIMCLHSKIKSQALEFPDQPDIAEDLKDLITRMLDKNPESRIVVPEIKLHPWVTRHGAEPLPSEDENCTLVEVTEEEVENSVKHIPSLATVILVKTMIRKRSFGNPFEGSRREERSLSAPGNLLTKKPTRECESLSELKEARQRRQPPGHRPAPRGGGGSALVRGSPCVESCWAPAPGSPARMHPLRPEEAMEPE
T6 sequence (O43318 1-303 limits assumed): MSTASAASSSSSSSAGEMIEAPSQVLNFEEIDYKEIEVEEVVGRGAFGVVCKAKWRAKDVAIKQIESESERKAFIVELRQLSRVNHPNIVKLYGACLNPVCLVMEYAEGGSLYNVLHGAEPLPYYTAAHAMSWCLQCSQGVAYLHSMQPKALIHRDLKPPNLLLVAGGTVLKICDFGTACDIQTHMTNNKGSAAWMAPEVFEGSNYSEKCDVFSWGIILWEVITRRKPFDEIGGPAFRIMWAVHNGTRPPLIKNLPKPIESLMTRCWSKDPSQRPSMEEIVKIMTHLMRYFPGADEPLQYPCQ

effect on kinase activity ([1]; 10 µM): not affected
% Change ([1]; 200μM, Control 10984 CPM, Test 11638 CPM): 5%
change of AMPK activity stimulated by 100 µM AMP [2, 19]: minimal decrease
EC50 ([2]; read-out: EC50 allosteric activation hα2β2γ2): ~26 nM
activity change [3]: −35%
activity change [4]: −61%
activity change [5]: −34%
effect on kinase activity [6]: not affected
inhibition at 10 µM [7]: 36%
activity change [8]: −79%
activity change [9]: −36%
activity change [10]: −71%
activity change [11]: −42%
protection against PP2C mediated dephosphorylation of Thr172 AMPK [12]: provided protection
effect on Adenylate kinase activity ([13]; 1 µM): minimally affected
effect on Adenylate kinase activity ([13]; ≤10 µM): unaffected
reduction of AMPK activity stimulated by 100 µM AMP [14, 19]: ~ 50%
EC50 ([14]; read-out: EC50 allosteric activation hα2β1γ1): ~23 nM
cooperativity of AMPK activation at high ATP ([15]; ATP 2 mM vs 20 µM, Activator-3 0–1 µM): does not exhibit co-operative binding
reduction of AMPK activity stimulated by 100 µM AMP [15, 19]: ~ 50%
EC50 ([15]; read-out: EC50 allosteric activation hα1β1γ1): ~38 nM
activation of AMPK [16]: 30–40%
t1/2 ([18]; male SD rats, oral 30 mg/Kg, plasma, 30 mg/kg): ~ 4 h
half-life ([18]; male, SD, rat, plasma, po, 30 mg/kg, male SD rats, oral 30 mg/Kg): 4.11 h
bioavailability ([18]; rat, oral): good bioavailability
Cmax ([18]; rat, plasma, male SD rats, oral 30 mg/Kg, read-out: Cmax in plasma): ~109 µg/mL
Cmax ([18]; rat, plasma, male SD rats, oral 30 mg/Kg, read-out: Cmax in plasma, molar): ~360 µM
AUC ([18]; rat, plasma, male SD rats, oral 30 mg/Kg, read-out: Systemic exposure in plasma (AUC)): ~978 µg·h/mL
AUC ([18]; rat, plasma, male SD rats, oral 30 mg/Kg, read-out: Systemic exposure in plasma (AUC), molar): ~3300 µM·h
Compound: O=C(O)Cc1csc(Nc2ccc(C(F)(F)F)cc2)n1 [Activator-3, 2-[2-(4-(trifluoromethyl)phenylamino)thiazol-4-yl]acetic acid]
effect on PFK1 activity [17]: unaffected; also recorded: no effect
level in brain / brain penetration ([18]; male SD rats, oral 30 mg/Kg, 30 mg/kg): No significant level; also recorded: no brain penetration

Source: publication PMC6018554, “2-[2-(4-(trifluoromethyl)phenylamino)thiazol-4-yl]acetic acid (Activator-3) is a potent activator of AMPK” (Scientific Reports, 2018)
